Assay results published in ChEMBL document CHEMBL1153656, “Synthesis of homochiral potassium channel openers: role of the benzopyranyl 3-hydroxyl group in cromakalim and pyridine N-oxides in determining the biological activities of enantiomers” (Bioorg Med Chem Lett, 1992).

Species on record: Rattus norvegicus
Assay: The concentration of test substance producing half maximal reduction of the contraction evoked by 20 mM KCI in rat hepatic portal veins.
Type: functional
Conditions: not given

SMILES	IC50
CC1(C)Oc2ccc(C#N)cc2[C@H](N2CCCC2=O)[C@H]1O (single isomer, unassigned) [(-)-CROMAKALIM]	74 nM
CC1(C)Oc2ccc(C#N)cc2[C@H](N2CCCC2=O)[C@H]1O [(-)-CROMAKALIM]	6600 nM

Same assay, conditions: Rattus norvegicus

SMILES	IC50
CC1(C)Oc2ccc(C#N)cc2[C@H](c2cccc[n+]2[O-])[C@H]1O	1200 nM
CC1(C)C[C@H](N2CCCC2=O)c2cc(C#N)ccc2O1	1150 nM
CC1(C)C[C@H](c2cccc[n+]2[O-])c2cc(C#N)ccc2O1	210 nM
CC1(C)Oc2ccc(C#N)cc2[C@@H](c2cccc[n+]2[O-])[C@@H]1O	100 nM
CC1(C)C[C@@H](c2cccc[n+]2[O-])c2cc(C#N)ccc2O1	75 nM
CC1(C)C[C@@H](N2CCCC2=O)c2cc(C#N)ccc2O1	520 nM
